Where two headings read alike, the source gives them in different places. Where a SMILES comes first, the peptide text is derived from it.
What was measured:
cancer cells = details: cited from earlier work
B16-F10 [1] = test: reversibility test: unattached cells washed and replated on gelatinized plates in new medium; assay type: cell-based; details: cells replated in fresh medium in new dishes
Protocol: In order to determine whether inhibition of cell attachment was non-toxic and reversible with any particular agent, the tumor cells were incubated in the presence of the agent and unattached cells collected, washed twice with serum containing medium, and replated on gelatinized well plates in new culture medium. Control cells were handled in a similar manner, except that they were removed from wells 16 hours after incubation by trypsinization. After incubation for 4-16 hours, the medium was aspirated, the wells washed twice with 200 microliters of PBS, and the remaining attached cells trypsinized and counted with a Coulter counter.

B16-F10 [2] = test: in vitro tumor cell attachment assay on gelatinized culture plates (acid phosphatase colorimetric readout); assay type: cell-based
Protocol: The following two examples of assays for suitable agents are designed to approximate a wound environment, and thus act as quick tests for suitable agents for practical use in particular circumstances. These assays are not limiting to the application. One example of an in vitro assay for determining the effect of one of the above agents on tumor cell attachment was performed as follows. Gelatinized 96-well tissue culture plates (Co-star, Cambridge, MA) were prepared by treating a standard culture plate with 100 microliters of 1.5% gelatin (Difco, Detroit, MI) in phosphate-buffered saline (PBS) and incubating the plate at 37°C for at least 24 hours. The solution was then aspirated and the cells washed twice with 200 microliters of PBS prior to use. Test agents were diluted in Dulbecco's Modified Eagles Medium (DMEM; Gibco Laboratories, Grand Island, NY) containing 10% fetal calf serum (FCS; Gibco), and 100 microliters of the diluted agent added to each well. […] The cells were grown in DMEM supplemented with 10% FCS, 2 mM glutamine and 100 units per ml penicillin and streptomycin.
After the cells and agent were incubated, the medium was aspirated from each well and the well washed twice with 200 microliters of PBS. […] Briefly, 100 microliters of an acid phosphatase reagent (0.1M sodium acetate, 0.01M p-nitrophenyl phosphate, 0.1% Triton-X 100) was added to each well, the plates incubated at 37°C for two hours, and 10 microliters 1N NaOH added to each well. The optical density of each well was read at 405nm on a Biotek ELISA reader. The optical density is directly related to cell number. The results were expressed as percent of optical density in untreated control wells,and represent the mean of at least three wells.

B16-F10 melonoma = assay type: in vivo, C57 B1/6 mice
Protocol: Inhibitors of tumor cell attachment in vivo are tested by their ability to block tumor cell attachment in a surgical wound. Wounds were made on the backs of C57 B1/6 mice (Charles River Laboratories, Wilmington, MA) using aseptic procedures under methoxyflurane anesthesia (Pittman-Moore Inc., Washington Crossing, NJ). […] The scissors were used to create a lateral subcutaneous pocket off a dorsal mid-line wound in an uncontaminated animal. Prior to use, the scissors were inspected to insure that no visible tissue was present on them. Prior to closure, the wounds were vigorously irrigated with 3ml of Ringers lactate supplemented with a chosen agent. Excess fluid was then expressed and the wound closed with skin clips.

In the case of [Na+].[O-]Cl [sodium hydrochlorite], the preventing tumor growth (cancer cells; 0.5% solution buffered to pH 9) is listed as “as effective as the above chemicals” and the “toxicity to the animal” value (cancer cells; in vivo, pH 9) is listed as “considerably less toxic”.

For O=C(O)[C@@H]1CCN1 [LACA, L-azetidine-2-carboxylic acid], the “reversibility of inhibition of tumor cell attachment” value (B16-F10 [1]) was “reversibly inhibited” and the minimal effective concentration (B16-F10 [2]; Mus musculus, B16-F10, read-out: doses at which tumor cell attachment was inhibited) was greater than 25 µg/mL.

With N=C(N)NCCC[C@H](NC(=O)CN)C(=O)NCC(=O)N[C@@H](CC(=O)O)C(=O)N[C@@H](CO)C(=O)O [GRGDS] the “infection from use of the agents” value (B16-F10 melonoma; mouse, in vivo) was “No evidence of infection”, the wound healing process (B16-F10 melonoma; mouse, in vivo) was “nor was the wound healing process delayed” and the “average volume of tumors formed in other animals” value (B16-F10 melonoma; versus control animals) was “significantly smaller”. The “formation of tumors in animals” value (B16-F10 melonoma; wound irrigation) was “inhibited formation of a significant percentage of tumors”.

For monoxychlorosene, the “toxic effects locally and systemically” value (cancer cells; in vivo) is given as “highly toxic effects”, the toxicity to tissues (cancer cells; in vivo) is given as “toxic to tissues” and the wound healing process (cancer cells; in vivo) is given as “delayed the wound healing process”. The preventing tumor growth (cancer cells; one percent solution) was “ineffective” and the preventing tumor growth (cancer cells; two percent solutions) was “effective”.

For N=C(N)NCCC[C@H](NC(=O)CN)C(=O)NCC(=O)N[C@@H](CC(=O)O)C(=O)N[C@@H](CO)C(=O)N1CCC[C@H]1C(=O)O [GRGDSP, glycine-arginine-glycine-aspartate-serine-proline], the “reversibility of inhibition of tumor cell attachment” value (B16-F10 [1]) was “reversibly inhibited” and the “concentrations at which tumor cell attachment was inhibited” value (B16-F10 [2]) was “greater than 10 mg/ml”.

With N=C(N)NCCC[C@H](NC(=O)CN)C(=O)NCC(=O)N[C@@H](CCC(=O)O)C(=O)N[C@@H](CO)C(=O)N1CCC[C@H]1C(=O)O [GRGESP, glycine-arginine-glycine-glutamate-serine-proline] (H-GRGESP-OH) the “attachment of B16 melanoma cells” value (B16-F10 [2]; compared with GRGDSP) was “inhibited attachment of B16 melanoma cells but was less effective”.
